Measured values reported in patent publication US20230312759A1, “BISPECIFIC ANTIBODY AGAINST CD3 AND CD20 IN COMBINATION THERAPY FOR TREATING DIFFUSE LARGE B-CELL LYMPHOMA” (GENMAB A/S, priority 2020, published 2023).

Key:
Raji cells = assay type: cell-based; conditions: with T cells, 48 hours, epcoritamab 0.01 pg/mL-100 ng/mL, gemcitabine, oxaliplatin at EC30 concentrations
Description: (§1) Briefly, human Burkitt lymphoma (Raji) and DLBCL (SU-DHL-4) cell lines were used as target cells. Cells were cultured in culture medium (RPMI 1640 with HEPES and L-Glutamine supplemented with 10% heat-inactivated donor bovine serum with iron, and 1% [v/v]penicillin/streptomycin) to which 2 mM L-glutamine and 1 mM sodium pyruvate were added, at 37° C., 5% CO2. T cells, isolated from human healthy donor buffy coats (Sanquin) by negative selection using the RosetteSep™ Human T Cell Enrichment Cocktail (Stemcell Technologies), followed by density centrifugation over a Ficoll gradient, both according to the manufacturer's instructions, were used as effector cells. Isolated cells were washed twice in phosphate buffered saline (PBS) and counted using acridine orange/propidium iodide (AO/PI) viability staining solution (Nexcelom Bioscience) on a Cellometer® Auto 2000 Cell Viability Counter. […] B-cell viability and T-cell activation were measured by flow cytometry (count of CD22-positive cells; expression of the T-cell activation markers CD69, CD25, programmed cell death protein 1 (PD-1), and CD107 [lysosomal associated membrane protein 1; LAMP-1] on CD4+ and CD8+ T cells). Absolute cell numbers were determined by adding Accucheck Counting beads (100 μL/well) (Thermofisher) and calculated as follows:
(§2) Correction factor=([bead count1+bead count2]/average bead countplate)
(§3) Absolute cell number=[cell countsample/correction factor]
(§4) The percentage cytotoxicity was calculated as follows:
(§5) % cytotoxicity=100−([absolute cell numbersample/absolute cell numberno antibody]×100%)

SU-DHL-4 cells = assay type: cell-based; conditions: SU-DHL-4, with T cells, 48 hours; epcoritamab 0.01 pg/mL-100 ng/mL; gemcitabine, oxaliplatin at EC30 concentrations
Description: as §1, §2, §3, §4, §5

[1] = test system: T cells incubated with Raji cells; test: In vitro T-cell activation assay, T cells incubated with Raji cells; assay type: cell-based, human; conditions: Raji target cells, 48 hours
Description: as §1, with “follows: […]” for “follows:”

[2] = test system: T cells incubated with SU-DHL-4 cells; test: In vitro T-cell activation assay, T cells incubated with SU-DHL-4 cells; assay type: cell-based, human; conditions: SU-DHL-4 target cells, 48 hours
Description: as §1, with “follows: […]” for “follows:”

R/R B-NHL = test: Ongoing clinical trial of epcoritamab monotherapy (NCT03625037); assay type: in vivo, human; conditions: R/R B-NHL patients, preliminary data
From the text: Summary of Ongoing Clinical Trial with Epcoritamab Epcoritamab as monotherapy is currently in a clinical trial for the treatment of relapsed/refractory (R/R) B-NHL (ClinicalTrials.gov Identifier: NCT03625037).

[3] = epcoritamab 0.01 pg/mL-100 ng/mL, flow cytometry
[4] = gemcitabine 1 nM, oxaliplatin 0.3 μM

| Compound | cytotoxicity of B cells (decrease in the number of viable B cells) (Raji cells) | cytotoxicity of B cells (decrease in the number of viable B cells) (SU-DHL-4 cells) | T-cell activation (upregulation of CD69, CD25, PD-1 and LAMP-1 expression) [1, 3] | Epcoritamab-induced T-cell activation in the presence of gemcitabine, oxaliplatin, or the combination [1, 4] | T-cell activation (upregulation of CD69, CD25, PD-1 and LAMP-1 expression) [2, 3] | Epcoritamab-induced T-cell activation in the presence of gemcitabine, oxaliplatin, or the combination [2, 4] | tolerated dose (R/R B-NHL) |
| --- | --- | --- | --- | --- | --- | --- | --- |
| Nc1ccn(C2OC(CO)C(O)C2(F)F)c(=O)n1 (centres unmarked) [gemcitabine, 4-amino-1-[3,3-difluoro-4-hydroxy-5-(hydroxymethyl)oxolan-2-yl]-1,2-dihydropyrimidin-2-one] | induced cytotoxicity of B cells | induced cytotoxicity of B cells |  |  |  |  |  |
| O=C1[O][Pt]2([NH][C@@H]3CCCC[C@H]3[NH]2)[O]C1=O [oxaliplatin, [(1R,2R)-cyclohexane-1,2-diamine](ethanedioato-O,O′)platinum(II)] | induced cytotoxicity of B cells | induced cytotoxicity of B cells |  |  |  |  |  |
| epcoritamab: IgG1 bispecific CD3×CD20 antibody; heavy and light chains of SEQ ID NOs: 24 and 25 (CD3 arm), 26 and 27 (CD20 arm); CAS 2134641-34-0 | concentration-dependent T-cell-mediated cytotoxicity | concentration-dependent T-cell-mediated cytotoxicity | concentration-dependent activation of both CD4+ (data not shown) and CD8+ T cells | not affected | concentration-dependent activation of both CD4+ (data not shown) and CD8+ T cells | not affected | at least 48 mg |
